Results: publication PMC5458179, “Oxidative DNA double strand breaks and autophagy in the antitumor effect of sterically hindered platinum(II) complexes in NSCLCs” (Oncotarget, 2017)

What was measured:
Assay type in all cases: cell-based, human
[1] = system: A549 and NCI-H1299 cancer cells; experiment: H2O2 measurement (Amplex Red); settings: A549 and NCI-H1299, 10 μM, 2 h
Procedure: As excessive ROS generation is associated with cell-killing activity, we further examined whether complex 3 could also induce the formation of excessive ROS in A549 and NCI-H1299 cancer cells.
The production of H2O2 was determined with the Amplex® Red reagent (10-acetyl-3,7-dihydroxyphenoxazine; Molecular Probes). In the presence of horseradish peroxidase (HPR), the Amplex® Red reagent reacts in a 1:1 stoichiometry to produce the red-fluorescent oxidation product, resorufin. Consequently, resorufin generation allows the detection of the H2O2 released from biological compounds. […] Resorufin generation was measured over time using a fluorometer (Fluostar BMG Labtech) at 544 nm excitation and 590 nm emission.

A549 cells = experiment: Autophagy by acridine orange flow cytometry (AVOs)
Procedure: The role of complex 3-induced autophagy in cell death was further analyzed (Figure 6). When A549 cancer cells were treated with complex 3 of 10 μM, the protein expression of LC3-II was increased (Figure 6A). […] Treatment with complex 3 for 24 h caused a 4.5-folds increase in cells undergoing autophagy (Figure 6C). […] Moreover, Bax and Bcl-2 expressions were measured by western blot analysis of whole cell lysates.
To investigate the role of ROS in complex 3-induced cell death, the level of intracellular H2O2 was measured. […] Exposure of A549 cells to NAC reduced levels of LC3-II from 2.3- to 1.5-folds (Figure 8B). […] In parallel, the complex 3-induced increase ratio of Bax/Bcl-2 was suppressed by NAC (Figure 8E).
Flow cytometry with acridine orange staining as described in a previous study was used to detect and quantify the AVOs, one of the characteristicsof autophagy. At the end of individual experiments, A549 cells were collected in phenol red-free RPMI 1640 medium. Green (FL-1) and red (FL-3) fluorescences of acridine orange were measured using a flow cytometer and CellQuest software (Becton Dickinson, San Jose, CA). The sum of the upper-left and upper-right quadrants of the cytogram was used to estimate the percentage of cells undergoing autophagy.

A549 cancer cells = experiment: Intracellular GSH measurement; settings: A549, 10 μM, 4 h
Procedure: After 4 h, medium was removed and dishes were rinsed three times with cold PBS. The cells were harvested and cell numbers were counted. Then, intracellular GSH levels were measured using a GSH test kit (KeyGen KGT006). A549 and NCI-H1299 cancer cells without treatment were used as control groups.

MCF-7 = experiment: MTT cytotoxicity assay; settings: exposed for 48 h
Procedure: Human cancer cell lines HepG2, SGC-7901, HCT-116, A549, NCI-H1299 and MCF-7 as well as normal liver cell line L02 were purchased from the Cell Bank of Shanghai Institute of Cell Biology. Among them, MCF-7, HepG2 cells were cultured at 37 °C in 5% CO2 with DMEM supplemented with 10% fetal bovine serum (FBS) (Hyclone, Lifescience, USA) and 1% penicillin/streptomycin (Beyotime, Nantong, China), while HCT-116, SGC-7901, A549, NCI-H1299 and L02 cells were cultured at 37 °C in 5% CO2 with RPMI-1640 supplemented with 10% FBS and 1% penicillin/streptomycin. Cells were passed every 2 days and restarted from frozen stocks upon reaching pass number 20.
In vitro cytotoxicity of the platinum compounds against human hepatocellular carcinoma (HepG-2), gastric carcinoma (SGC-7901), non-small-cell lung cancer (A549), and colorectal cancer (HCT-116) cell lines were measured by the MTT assays. Briefly, the cells were seeded in 96-well cultured plates at a density of 5000 cells/well. After overnight incubation (16 h), the cells were treated with the platinum complexes. […] The cell viability was evaluated by measurement of the absorbance at 490 nm, using an Absorbance Reader (BioRad). […] The reading values were converted to the percentage of control (% cell survival). Cytotoxic effects were expressed as IC50 values.

SMILES: CC(C)C[NH+]1[C@@H]2CCCC[C@H]2[NH+](CC(C)C)[Pt-2]12[O]C(=O)CC(=O)[O]2 (stereo partly drawn) [Complex 3]
- production of H2O2 [1]: significantly higher
- percentage of autophagy (A549 cells; A549, 10 μM complex 18 h, without NAC): 42.5%
- increase in cells undergoing autophagy (A549 cells; A549, 10 μM, 24 h): 4.5 folds
- percentage of autophagy (A549 cells; A549, 5 mM NAC 2 h pretreatment then 10 μM complex 18 h): 11.8%
- intracellular GSH levels (A549 cancer cells): did significantly reduce
- IC50 (MCF-7): 32.5 ± 2.9 µM
